Test results published in PMC12867150, “A fungi-derived cyclic peptide enhances Th9-mediated antitumor immunity by targeting ZAP70 and SREBP1” (The Journal of Clinical Investigation, 2025).
Values joined by “and” are separate entries in the source; they are usually repeats but may differ in a detail not shown here. Identical values can stand only once.

Tests used:
[1] = tested on: endogenous CD8+ T cells; experiment: Flow cytometry of endogenous CD8+ T cells in spleen, LN, tumor (Figure 2F-G, S1F-I); type: in vivo, mouse; conditions: for Frequencies of endogenous CD8⁺ T cells in LN: Supplemental Figure 1I left; for Number of endogenous CD8⁺ T cells in LN: Supplemental Figure 1I right; for CD8 gate number: representative flow plot
Method: (§1) C57BL/6 mice were subcutaneously injected with 5 × 10^5 B16-OVA melanoma cells. Five days after tumor implantation, mice received an intravenous infusion of 2 × 10^6 in vitro–differentiated Th9 cells (cultured for 5 days), which were derived from OT-II CD45.1 donor mice, accompanied by 4 × 10^5 OVA peptide–pulsed DCs via the tail vein. To enhance T cell engraftment and facilitate lymphodepletion, a single intraperitoneal injection of cyclophosphamide (200 mg/kg, Sigma, catalog C0768) was administered 1 day prior to T cell transfer. Mice were euthanized at designated time points for the collection and analysis of spleens, tumor-draining lymph nodes, and tumor tissues.
(§2) Details regarding staining panels (human and mouse), reagents (including clones and catalog numbers), acquisition settings, compensation/controls, and analysis procedures are provided in Supplemental Methods.
(§3) BioLegend, Cat. No. 422301 or Mouse TruStain FcX™, BioLegend, Cat. No. 101319) for 10 minutes at 4°C. For surface marker detection, cells were stained with fluorochrome-conjugated monoclonal antibodies in 96-well V-bottom plates and incubated on ice for 30 minutes. After staining, cells were washed twice and resuspended in FACS buffer for analysis.
(§4) Prior to intracellular cytokine staining, cells were restimulated for 4 hours with PMA (Absin, Cat. No. abs9107), ionomycin (Sigma-Aldrich, Cat. No. I0634), and brefeldin A (MedChemExpress, Cat. No. HY-16592). For intracellular cytokine staining, cells were first surface-stained as described above, then fixed and permeabilized using the BD Cytofix/Cytoperm™ kit (BD Biosciences, Cat. No. 554714) according to the manufacturer ’s protocol. Intracellular proteins were stained with directly conjugated antibodies targeting IL-9, IL-17a, IL-4, IFN-γ, TNF-α, FOXP3, p-ZAP70, Perforin, and […]
(§5) Antibodies used for mouse samples included those against IL-9 (PE, clone RM9A4, Biolegend, Cat. No. 514104), IFN-γ (PE, clone XMG1.2, Biolegend, Cat. No.
(§6) Cat. No. 103138), CD4 (APC/Cy7, clone E-AB-F1353UJ, Elabscience, Cat. No.
(§7) AF18028), CD8α (PerCP/Cy5.5, clone E-AB-F1104UJ, Elabscience, Cat. No. […]
(§8) clone E-AB-F1187UH, Elabscience, Cat. No. AF19854), TNF-α (BV421, clone MP6-XT22, Biolegend, Cat. No. 506328), FOXP3 (PE, clone FJK-16s, eBioscience, Cat. No.
Perforin (APC, clone S16009A, Biolegend, Cat. No. 154303) and Granzyme B (APC, […]
clone QA16A02, Biolegend, Cat. No. 372203). […]
Figure S1. EpA enhances immune responses. […]
I) Representative flow-cytometric plots of endogenous CD4⁺ and CD8⁺ T cells in spleens (F), LNs (G), and tumors (H); frequencies and absolute numbers of endogenous CD4⁺ (G) and CD8⁺ (I) T cells in LNs are quantified. (J and K) […]
Statistical analysis was performed using two-way ANOVA with Tukey’s post hoc test (A), one-way ANOVA with Tukey’s post hoc test (B) or two-tailed unpaired Student’s t-test (D and G–M). ns, not significant. *p < 0.05, **p < 0.01, ****p < 0.0001.
(also on this page, place not known: Mouse weight (g) CtrlEpA CtrlEpA CtrlEpA0 I CD45.1+ T cells (%) CtrlEpA CD4+ T cells (%) CtrlEpA CtrlEpA CtrlEpA FSC CD8 CD8 FSC FSC FSC BNumber of CD45.1+ T cells (×103 per mgĎ Number of CD4+ T cells (×104 per mgĎ DC (%)NK cells (%) NK cells (%) DC (%) Number of DC (×103 per mg) Number of NK cells (×105) Number of NK cells (×103 per mg) Number of DC (×105) FSC FSC FSC CD8 CtrlEpA CtrlEpA CtrlEpA CD8+ T cells (%) Number of CD8+ T cells (×104 per mgĎ nsns ns nsns ns 40 IL-6 (pg/ml)) […]

[2] = tested on: endogenous CD4+ T cells; experiment: Cytokines and granzyme B/perforin in endogenous CD4+ T cells (Figure 3I, S4G-I); type: in vivo, mouse; design: TNF-α expression / IFN-γ expression / Expression of IFN-g of endogenous CD4⁺ T cells in tumor / Expression of TNF-α of endogenous CD4⁺ T cells in tumor: unit not given here; conditions: for Expression of IFN-g of endogenous CD4⁺ T cells in tumor: Supplemental Figure 4G; for Expression of TNF-α of endogenous CD4⁺ T cells in tumor: Supplemental Figure 4H; for Expression of GzmB+Perforin+ of endogenous CD4⁺ T cells in tumor: Supplemental Figure 4I
Method: as §1, §2, §3, §4, §5, §6, §7, §8
Perforin (APC, clone S16009A, Biolegend, Cat. No. 154303) and Granzyme B (APC, clone QA16A02, Biolegend, Cat. No. 372203). For human samples, antibodies against CD4 (PerCP/Cy5.5, clone RPA-T4, Biolegend, Cat. No. 300530; APC/Cy7, clone OKT4, Biolegend, Cat. No. 317418), CD19 (APC/Cy7, clone SJ25C1, Biolegend, Cat.
No. 363009), IFN-γ (PE, clone 4S.B3, Biolegend, Cat. No. 502509), IL-9 (PE, clone

[3] = spleens, individual mice, n = 4
[4] = endogenous CD4+, spleen, individual mice, n = 4

anteiso-C15 Leu7 surfactin [EpA]
Frequencies of endogenous CD8⁺ T cells in LN ([1]; LN, replicate 1): 31.6
Frequencies of endogenous CD8⁺ T cells in LN ([1]; LN, replicate 2): 27.8
Frequencies of endogenous CD8⁺ T cells in LN ([1]; LN, replicate 3): 36.5
Frequencies of endogenous CD8⁺ T cells in LN ([1]; LN, replicate 4): 27.9
Number of endogenous CD8⁺ T cells in LN ([1]; LN, replicate 1): 49988.9
Number of endogenous CD8⁺ T cells in LN ([1]; LN, replicate 2): 41201.1
Number of endogenous CD8⁺ T cells in LN ([1]; LN, replicate 3): 21505.6
Number of endogenous CD8⁺ T cells in LN ([1]; LN, replicate 4): 20877.6
CD8 gate number ([1]; LN, Figure S1G): 36.5
CD8 gate number ([1]; Spleen, Figure S1F): 34.5
CD8 gate number ([1]; Tumor, Figure S1H): 54.0
endogenous CD8+ T cell frequency ([1]; lymph nodes, result in words): modest frequency increase
endogenous CD8+ T cell total numbers ([1]; lymph nodes, result in words): unchanged total numbers
endogenous CD8+ T cell frequency and number ([1]; spleens and tumors, result in words): markedly increased in both frequency and absolute number
endogenous CD8 (%) [1, 3]: 30.4% and 27.2% and 30.6% and 34.5%
number of CD8 T cells [1, 3]: 3878238 and 3825743 and 3962312 and 3201124
endogenous CD8 T cells (%) ([1]; tumors, individual mice, n = 4): 54% and 34.7% and 36.8% and 55.2%
number of endogenous CD8 T cells ([1]; tumors, individual mice, n = 4): 176 and 424 and 563 and 172
GzmB+ PRF1+ gate number ([2]; CD4+ T cells in tumors, representative flow plot, Figure S4I): 5.26
GzmB and Perforin expression [2, 4]: 8.38 and 8.7 and 5.23 and 4.52
IFN-γ expression [2, 4]: 10.3 and 15 and 14.6 and 10.5
TNF-α expression [2, 4]: 13.3 and 10.2 and 13.4 and 20.6
TNF-α expression of CD4+ T cells ([2]; spleen, result in words): remained unchanged
granzyme B+ perforin+ CD4+ T cells ([2]; spleen, result in words): pronounced increase
Expression of IFN-g of endogenous CD4⁺ T cells in tumor ([2]; replicate 1): 193
Expression of IFN-g of endogenous CD4⁺ T cells in tumor ([2]; replicate 2): 141
Expression of IFN-g of endogenous CD4⁺ T cells in tumor ([2]; replicate 3): 342
Expression of IFN-g of endogenous CD4⁺ T cells in tumor ([2]; replicate 4): 291
Expression of TNF-α of endogenous CD4⁺ T cells in tumor ([2]; replicate 1): 483
Expression of TNF-α of endogenous CD4⁺ T cells in tumor ([2]; replicate 2): 294
Expression of TNF-α of endogenous CD4⁺ T cells in tumor ([2]; replicate 3): 665
Expression of TNF-α of endogenous CD4⁺ T cells in tumor ([2]; replicate 4): 542
Expression of GzmB+Perforin+ of endogenous CD4⁺ T cells in tumor ([2]; replicate 1): 5.25
Expression of GzmB+Perforin+ of endogenous CD4⁺ T cells in tumor ([2]; replicate 2): 5.18
Expression of GzmB+Perforin+ of endogenous CD4⁺ T cells in tumor ([2]; replicate 3): 5.26
Expression of GzmB+Perforin+ of endogenous CD4⁺ T cells in tumor ([2]; replicate 4): 9.14
TNF-α expression of CD4+ T cells ([2]; tumors, result in words): upregulated TNF-α expression
